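Test compounds were applied to cells in 96-well plates for 48 hours at 5 doses. GI50: concentration for 50% inhibition of growth.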 Calls of active or inactive are those of the source. No stated cut-off is given here; in the data, active = GI50 up to about 1.1 µM and inactive = higher.
Tests used:
Assay in all cases: DTP human tumour cell line panel, 48 h
[1] = system: RXF 393
[2] = system: K562
[3] = system: SF-295
[4] = system: OVCAR-3
[5] = system: MDA-MB-435
[6] = system: SNB-78
[7] = system: UACC-257
[8] = system: UACC-62
[9] = system: SK-MEL-2
[10] = system: M19-MEL
[11] = system: OVCAR-8
[12] = system: EKVX
[13] = system: DU-145
[14] = system: Hs-578T
[15] = system: Malme-3M
[16] = system: ACHN
[17] = system: HCT-15
[18] = system: SNB-75
[19] = system: T47D
[20] = system: LXFL 529

SMILES	GI50 [1]	GI50 [2]	GI50 [3]	GI50 [4]	GI50 [5]	GI50 [6]	GI50 [7]	GI50 [8]	GI50 [9]	GI50 [10]	GI50 [11]	GI50 [12]	GI50 [13]	GI50 [14]	GI50 [15]	GI50 [16]	GI50 [17] [µM]	GI50 [18]	GI50 [19]	GI50 [20]
C/C(=N\N=C(/S)N1CC2CCC(CC2)C1)c1cccc[n+]1[O-]	13.7 µM (inactive)	0.228 µM (active)	4.43 µM (inactive)	0.044 µM (active)	28.5 µM (inactive)	8.34 µM (inactive)	7.59 µM (inactive)	7.31 µM (inactive)	15.3 µM (inactive)	3.58 µM (inactive)	6.44 µM (inactive)	7.45 µM (inactive)	46.8 µM (inactive)	18.4 µM (inactive)	12.5 µM (inactive)	5 µM (inactive)	1.8	11.5 µM (inactive)	22.6 µM (inactive)	
Cc1ccc(S(=O)(=O)Oc2cc(S(=O)(=O)O)cc3cc(S(=O)(=O)O)cc(N)c23)cc1	> 100 µM (inactive)	> 100 µM (inactive)	> 100 µM (inactive)	> 100 µM (inactive)	> 100 µM (inactive)		> 100 µM (inactive)	> 100 µM (inactive)	> 100 µM (inactive)		> 100 µM (inactive)	> 100 µM (inactive)	> 100 µM (inactive)	> 100 µM (inactive)	> 100 µM (inactive)	> 100 µM (inactive)	> 100	> 100 µM (inactive)	> 100 µM (inactive)	
CC(C)=CCc1c(O)cc2oc(-c3ccc(O)cc3O)cc(=O)c2c1O	26.4 µM (inactive)	8.87 µM (inactive)	31.6 µM (inactive)	21.8 µM (inactive)	26.4 µM (inactive)		30.9 µM (inactive)	18.1 µM (inactive)	25.4 µM (inactive)		36.7 µM (inactive)	42.3 µM (inactive)	29.3 µM (inactive)	42.8 µM (inactive)	25.3 µM (inactive)	26.9 µM (inactive)	23	23.8 µM (inactive)	19 µM (inactive)	
CN(C)CCCN1c2ccc([N+](=O)[O-])cc2CCc2cc([N+](=O)[O-])ccc21	6.98 µM (inactive)	19.4 µM (inactive)	15.6 µM (inactive)	15.5 µM (inactive)	13.4 µM (inactive)		15.2 µM (inactive)	13.5 µM (inactive)	20.7 µM (inactive)		15.5 µM (inactive)	14.1 µM (inactive)	16.6 µM (inactive)	15.2 µM (inactive)	10.3 µM (inactive)	11.4 µM (inactive)	16.7	12.3 µM (inactive)	15.6 µM (inactive)	
Cc1c(C(=O)Nc2ccc(Cl)cc2)nc(N)nc1-c1cccc(Cl)c1	39.5 µM (inactive)	38.5 µM (inactive)	> 100 µM (inactive)	> 100 µM (inactive)		> 100 µM (inactive)	> 100 µM (inactive)	> 100 µM (inactive)		> 100 µM (inactive)	> 100 µM (inactive)	> 100 µM (inactive)			> 100 µM (inactive)	> 100 µM (inactive)				> 10 µM (inactive)
COC[C@@H](/N=C/N1CCc2cc(OC)c(OC)cc2[C@@H]1C)C(C)(C)C	> 100 µM (inactive)	> 100 µM (inactive)	> 100 µM (inactive)	> 100 µM (inactive)			> 100 µM (inactive)	> 100 µM (inactive)	86.7 µM (inactive)	> 100 µM (inactive)	> 100 µM (inactive)	> 100 µM (inactive)			> 100 µM (inactive)	> 100 µM (inactive)	> 100	> 100 µM (inactive)		> 100 µM (inactive)
COc1ccc2c(c1)[n+]([O-])c(-c1ccc([N+](=O)[O-])cc1)c(N)[n+]2[O-]	> 100 µM (inactive)	32.6 µM (inactive)	> 100 µM (inactive)	> 100 µM (inactive)		96.4 µM (inactive)	81.3 µM (inactive)		80.4 µM (inactive)		> 100 µM (inactive)	> 100 µM (inactive)			> 100 µM (inactive)	> 100 µM (inactive)		> 100 µM (inactive)		39.5 µM (inactive)
Cc1ncc(C/N=C/c2ccc(Cl)cc2)c(N)n1	> 100 µM (inactive)	> 100 µM (inactive)	> 100 µM (inactive)	> 100 µM (inactive)	> 100 µM (inactive)		> 100 µM (inactive)	> 100 µM (inactive)	> 100 µM (inactive)		> 100 µM (inactive)	> 100 µM (inactive)	> 100 µM (inactive)	> 100 µM (inactive)	> 100 µM (inactive)	> 100 µM (inactive)	> 100	> 100 µM (inactive)	> 100 µM (inactive)	
CN(C)CCNC(=O)c1cccc2c(Nc3ccc(S(=O)(=O)N=C(N)N)cc3)c3ccccc3nc12	28 µM (inactive)	11.9 µM (inactive)	17.3 µM (inactive)					10.3 µM (inactive)	19.2 µM (inactive)	18.7 µM (inactive)	8.79 µM (inactive)	20.6 µM (inactive)				22.1 µM (inactive)	99.1	15.1 µM (inactive)		7.89 µM (inactive)
CCN(CC)CCNC(=O)c1ccccc1Nc1c(Cl)cccc1Cl	12.3 µM (inactive)	> 10 µM (inactive)				16.4 µM (inactive)	15.1 µM (inactive)	17.1 µM (inactive)		16.1 µM (inactive)	16.4 µM (inactive)	12.7 µM (inactive)				17.5 µM (inactive)	12.6	11.2 µM (inactive)		16.5 µM (inactive)
COC1=CC(=O)C2C(C1=O)[C@@H]1c3ccccc3OC[C@H]21 (stereo not given in full)	> 100 µM (inactive)	> 100 µM (inactive)	> 100 µM (inactive)	> 100 µM (inactive)		> 100 µM (inactive)			> 100 µM (inactive)		> 100 µM (inactive)	> 100 µM (inactive)			> 100 µM (inactive)	> 100 µM (inactive)	> 10	> 100 µM (inactive)		> 100 µM (inactive)
N=C(N)NS(=O)(=O)c1ccc(NCc2c3ccccc3[n+]([O-])c3ccccc23)cc1		25.7 µM (inactive)	18.7 µM (inactive)	46.1 µM (inactive)		31.6 µM (inactive)	74.6 µM (inactive)	22.5 µM (inactive)	40.2 µM (inactive)	22.9 µM (inactive)	28.5 µM (inactive)	> 100 µM (inactive)			20 µM (inactive)	17 µM (inactive)	18.4	13.5 µM (inactive)		17.1 µM (inactive)
CN(C)c1[se]nc2c1c(=O)n(C)c(=O)n2C		> 100 µM (inactive)	> 100 µM (inactive)	> 100 µM (inactive)		> 100 µM (inactive)	> 100 µM (inactive)	> 100 µM (inactive)	> 100 µM (inactive)	> 100 µM (inactive)	> 100 µM (inactive)	> 100 µM (inactive)			> 100 µM (inactive)	> 100 µM (inactive)	> 100	58.5 µM (inactive)		> 100 µM (inactive)
O=C1N/C(=N/N=C/c2ccccc2)N/C1=C\c1cccs1	17.7 µM (inactive)	12.2 µM (inactive)	17.4 µM (inactive)	15.4 µM (inactive)	7.52 µM (inactive)		30.5 µM (inactive)	20.1 µM (inactive)	8.57 µM (inactive)		13 µM (inactive)	21.5 µM (inactive)	18.5 µM (inactive)	2.77 µM (inactive)	8.99 µM (inactive)	15.9 µM (inactive)	17.9	22 µM (inactive)	28.2 µM (inactive)	
O=C(NC1CCC[C@H]1OC(=O)c1ccccc1)c1ccccc1 (stereo not given in full)	> 100 µM (inactive)	38 µM (inactive)	> 100 µM (inactive)	16.2 µM (inactive)		> 100 µM (inactive)	> 100 µM (inactive)	50.9 µM (inactive)	> 100 µM (inactive)	> 100 µM (inactive)	> 100 µM (inactive)	> 100 µM (inactive)			0.0489 µM (active)	> 10 µM (inactive)		10.7 µM (inactive)		
COc1cc2c(c(OC)c1OC)-c1ccc(SC)c(=O)cc1[C@@H](NC(=O)c1ccc([N+](=O)[O-])cc1)CC2	< 0.0025 µM (active)	< 0.0025 µM (active)	< 0.0025 µM (active)	< 0.0025 µM (active)		< 0.0025 µM (active)	< 0.0025 µM (active)	0.00853 µM (active)	0.0045 µM (active)	0.0195 µM (active)		< 0.0025 µM (active)			< 0.0025 µM (active)	0.00555 µM (active)	0.00843	10.7 µM (inactive)		
Nc1ccccc1S(=O)(=O)N(CC(=O)O)c1ccccc1	> 100 µM (inactive)	> 100 µM (inactive)					> 100 µM (inactive)	> 100 µM (inactive)	> 100 µM (inactive)	> 100 µM (inactive)	> 100 µM (inactive)	> 100 µM (inactive)			> 100 µM (inactive)	> 100 µM (inactive)	> 100	> 100 µM (inactive)		> 100 µM (inactive)
C=C1C(=O)[C@]23C[C@H]1C[C@@H](O)[C@H]2[C@]1(COC3=O)[C@@H](OC(C)=O)CC[C@@](C)(COC(C)=O)[C@H]1C=O [LOXOTHYRIN A]	17.2 µM (inactive)	6.97 µM (inactive)	> 50 µM (inactive)	> 50 µM (inactive)	> 50 µM (inactive)		> 50 µM (inactive)	> 50 µM (inactive)	> 50 µM (inactive)		> 50 µM (inactive)	> 50 µM (inactive)	> 50 µM (inactive)	3.97 µM (inactive)	11.4 µM (inactive)	> 50 µM (inactive)	> 50	> 50 µM (inactive)	11.7 µM (inactive)	

From ChEMBL document CHEMBL1201862, “PubChem BioAssay data set” (2004)
